Experimental data as given in ChEMBL document CHEMBL5126543, “Tandem construction of biological relevant aliphatic 5-membered N-heterocycles” (Eur J Med Chem, 2022).
pIC50: −log10 of the molar value. In brackets after ≈: the same amount, converted by molar mass. *1 amine or outer side, *2 acyl side, *3 side chain or, on linkers, in order; H or OH if unused. Where a SMILES comes first, the peptide text is derived from it. [ ]: non-standard residue; d: D form. Pro(trans-4-cHex) = O=C(O)[C@@H]1C[C@@H](C2CCCCC2)CN1; Pro(trans-4-Ph) = O=C(O)[C@@H]1C[C@@H](c2ccccc2)CN1; X1 = CS[C@H]1C[C@@H](C(=O)[*:2])N([*:1])C1

What was measured:
PC-3 = test: Cytotoxicity against human PC-3 cells treated for 72 hrs by MTT assay; assay type: functional, cell-based; details: PC-3, 72 h
SK-BR-3 = test: Cytotoxicity against human SK-BR-3 cells treated for 72 hrs by MTT assay; assay type: functional, cell-based; details: SK-BR-3, 72 h
A549 = test: Cytotoxicity against human A549 cells treated for 72 hrs by MTT assay; assay type: functional, cell-based; details: A549, 72 h
HeLa = test: Cytotoxicity against human HeLa cells treated for 72 hrs by MTT assay; assay type: functional, cell-based
MCF7 = test: Cytotoxicity against human MCF7 cells treated for 72 hrs by MTT assay; assay type: functional, cell-based; details: MCF7, 72 h
SNB-19 = test: Antiproliferative activity against human SNB-19 cells measured after 72 hrs by WST-1 assay; assay type: functional, cell-based; details: SNB-19, 72 h
MDA-MB-231 = test: Antiproliferative activity against human MDA-MB-231 cells measured after 72 hrs by WST-1 assay; assay type: functional, cell-based; details: MDA-MB-231, 72 h
[1] = Cytotoxicity against HFF-1 cells measured after 72 hrs by WST-1 assay; assay type: toxicity, cell-based; details: human
C32 = test: Antiproliferative activity against human C32 cells measured after 72 hrs by WST-1 assay; assay type: functional, cell-based; details: C32, 72 h
Escherichia coli = test: Antimicrobial activity against Escherichia coli ATCC 25922 incubated for 18 to 20 hrs; assay type: functional; details: time 18-20 hrs
Priestia megaterium = test: Antimicrobial activity against Bacillus megaterium Bm11 incubated for 18 to 20 hrs; assay type: functional; details: time 18-20 hrs
[2] = system: Staphylococcus epidermidis; test: Antimicrobial activity against Staphylococcus epidermidis ATCC 12228 incubated for 18 to 20 hrs; assay type: functional; details: time 18-20 hrs
Pseudomonas aeruginosa = test: Antimicrobial activity against Pseudomonas aeruginosa ATCC 27853 incubated for 18 to 20 hrs; assay type: functional; details: time 18-20 hrs
Candida albicans = test: Antimicrobial activity against Candida albicans ATCC 24433 incubated for 18 to 20 hrs; assay type: functional; details: time 18-20 hrs

Clc1ccc2c(Nc3ccc(CN4CCCCC4)c(-c4ccccc4)c3)ccnc2c1
pIC50 (PC-3): 4.13
pIC50 (SK-BR-3): 4.19
pIC50 (A549): < 3.68
pIC50 (HeLa): 5.25
pIC50 (MCF7): < 3.70

Clc1ccc2c(Nc3ccc(CN4CCCC4)cc3)ccnc2c1
pIC50 (PC-3): 4.37
pIC50 (SK-BR-3): 4.90
pIC50 (A549): 4.23
pIC50 (HeLa): 4.55
pIC50 (MCF7): 4.33

CCN(CC)Cc1ccc(Nc2ccnc3cc(Cl)ccc23)cc1
pIC50 (PC-3): < 3.60
pIC50 (SK-BR-3): 3.92
pIC50 (A549): < 3.60
pIC50 (HeLa): 5.69
pIC50 (MCF7): < 3.60

CCN(CC)CC#CCSc1nc2c(c(=O)[nH]c(=O)n2C)n1C
pIC50 (SNB-19): 5.83
pIC50 (MDA-MB-231): 4.17
IC50 at 72 h [1]: 3.68 µM
pIC50 (C32): 4.58

CC[C@H](C)[C@H](NC(=O)[C@H](CCCNC(=N)N)NC(=O)CNC(=O)[C@H](CC(C)C)NC(=O)[C@H](Cc1ccccc1)NC(=O)[C@H](CCCCN)NC(=O)[C@H](CO)NC(=O)[C@H](Cc1ccccc1)NC(=O)[C@H](Cc1c[nH]c2ccccc12)NC(=O)[C@H](CCC(N)=O)NC(=O)[C@@H]1C[C@H](SC)CN1C(=O)[C@@H](NC(=O)[C@@H](N)Cc1ccccc1)C(C)C)C(=O)N[C@@H](CC(C)C)C(N)=O (H-FV[X1]QWFSKFLGRIL-NH2)
MIC (Escherichia coli): 12.5 µM (≈ 22.3 µg/mL)
MIC (Priestia megaterium): 3.12 µM (≈ 5.56 µg/mL)
MIC [2]: 3.12 µM (≈ 5.56 µg/mL)
MIC (Pseudomonas aeruginosa): 25 µM (≈ 44.6 µg/mL)
MIC (Candida albicans): 6.25 µM (≈ 11.1 µg/mL)

COc1cccc2c1C(=O)c1c(O)c3c(c(O)c1C2=O)C[C@@](O)(C(=O)CO)C[C@@H]3O[C@H]1C[C@H](N)[C@H](O)[C@H](C)O1 [DOXORUBICIN]
pIC50 (PC-3): 5.78
pIC50 (SK-BR-3): 5.63
pIC50 (HeLa): 5.61
pIC50 (MCF7): 5.44

CC[C@H](C)[C@H](NC(=O)[C@H](CCCNC(=N)N)NC(=O)CNC(=O)[C@H](CC(C)C)NC(=O)[C@H](Cc1ccccc1)NC(=O)[C@H](CCCCN)NC(=O)[C@H](CO)NC(=O)[C@H](Cc1ccccc1)NC(=O)[C@H](Cc1c[nH]c2ccccc12)NC(=O)[C@H](CCC(N)=O)NC(=O)[C@@H]1C[C@@H](c2ccccc2)CN1C(=O)[C@@H](NC(=O)[C@@H](N)Cc1ccccc1)C(C)C)C(=O)N[C@@H](CC(C)C)C(N)=O (H-FV[Pro(trans-4-Ph)]QWFSKFLGRIL-NH2)
MIC (Escherichia coli): 12.5 µM (≈ 22.7 µg/mL)
MIC (Priestia megaterium): 3.12 µM (≈ 5.66 µg/mL)
MIC [2]: 3.12 µM (≈ 5.66 µg/mL)
MIC (Pseudomonas aeruginosa): 50 µM (≈ 90.7 µg/mL)
MIC (Candida albicans): 12.5 µM (≈ 22.7 µg/mL)

CCN(CC)CC#CCSc1nc(Cl)nc2nc(SCC#CCN(CC)CC)n(C)c12
pIC50 (SNB-19): 5.54
pIC50 (MDA-MB-231): 5.00
IC50 at 72 h [1]: 1 µM
pIC50 (C32): 5.27

CN1CCN(Cc2ccc(Nc3ccnc4cc(Cl)ccc34)cc2-c2ccc(Cl)cc2)CC1
pIC50 (PC-3): 4.62
pIC50 (SK-BR-3): 4.78
pIC50 (A549): 4.36
pIC50 (HeLa): > 6.00
pIC50 (MCF7): 4.60

Clc1ccc2c(Nc3ccc(CN4CCOCC4)c(-c4ccccc4)c3)ccnc2c1
pIC50 (PC-3): 4.93
pIC50 (SK-BR-3): 4.12
pIC50 (A549): 4.16
pIC50 (HeLa): 4.26
pIC50 (MCF7): < 3.70

CC[C@H](C)[C@H](NC(=O)[C@H](CCCNC(=N)N)NC(=O)CNC(=O)[C@H](CC(C)C)NC(=O)[C@H](Cc1ccccc1)NC(=O)[C@H](CCCCN)NC(=O)[C@H](CO)NC(=O)[C@H](Cc1ccccc1)NC(=O)[C@H](Cc1c[nH]c2ccccc12)NC(=O)[C@H](CCC(N)=O)NC(=O)[C@@H]1C[C@@H](C2CCCCC2)CN1C(=O)[C@@H](NC(=O)[C@@H](N)Cc1ccccc1)C(C)C)C(=O)N[C@@H](CC(C)C)C(N)=O (H-FV[Pro(trans-4-cHex)]QWFSKFLGRIL-NH2)
MIC (Escherichia coli): 50 µM (≈ 91 µg/mL)
MIC (Priestia megaterium): 3.12 µM (≈ 5.68 µg/mL)
MIC [2]: 3.12 µM (≈ 5.68 µg/mL)
MIC (Pseudomonas aeruginosa): 100 µM (≈ 182 µg/mL)
MIC (Candida albicans): 25 µM (≈ 45.5 µg/mL)

Cn1c(SCC#CCN2CCCC2)nc2nc(Cl)nc(SCC#CCN3CCCC3)c21
pIC50 (SNB-19): 6.28
pIC50 (MDA-MB-231): 5.42
IC50 at 72 h [1]: 3.63 µM
pIC50 (C32): 5.34

Cn1c(SCC#CCN2CCCC2)nc2c1c(=O)[nH]c(=O)n2C
pIC50 (SNB-19): 3.75
pIC50 (MDA-MB-231): 3.33
IC50 at 72 h [1]: 34.3 µM
pIC50 (C32): 4.29

COc1cc2c(c(OC)c1OC)-c1ccc(OC)c(=O)cc1[C@@H](NC(C)=O)CC2 [COLCHICINE]
pIC50 (PC-3): 7.52
pIC50 (SK-BR-3): 7.40
pIC50 (MCF7): 4.60

Cn1cnc2nc(SCC#CCN3CCCC3)nc(SCC#CCN3CCCC3)c21
pIC50 (SNB-19): 4.71
pIC50 (MDA-MB-231): 4.70
IC50 at 72 h [1]: 10 µM
pIC50 (C32): 5.17

Clc1ccc2c(Nc3ccc(CN4CCCCC4)cc3)ccnc2c1
pIC50 (PC-3): 3.83
pIC50 (SK-BR-3): 4.47
pIC50 (A549): < 3.60
pIC50 (HeLa): > 6.00
pIC50 (MCF7): 4.16

Cn1cnc2nc(SCC#CCN3CCOCC3)nc(SCC#CCN3CCOCC3)c21
pIC50 (SNB-19): 4.67
pIC50 (MDA-MB-231): 4.29
IC50 at 72 h [1]: 0.37 µM
pIC50 (C32): 4.67

CCN(CC)Cc1ccc(Nc2ccnc3cc(Cl)ccc23)cc1-c1ccccc1
pIC50 (PC-3): 4.47
pIC50 (SK-BR-3): 5.44
pIC50 (A549): 4.47
pIC50 (HeLa): < 3.70
pIC50 (MCF7): < 3.70
